Data set [1] in a line: in vitro. The settings on record: dog, CC50 (μM).
Data set [2] deals with Tamiflu-resistant 2009 pandemic influenza A (H1N1) virus (H275Y mutation in neuraminidase). As to the kind of experiment: in vitro. The settings on record: dog, SI (selective index = CC50/EC50).
For data set [3] the test system is unchanged. The settings on record: for SI (selective index = CC50/EC50), H1N1 Tamiflu-resistant: dog.
Data set [4] deals with Madin-Darby canine kidney (MDCK) cells.
Data set [5] deals with H1N1 influenza virus. Kind of data set: In vitro anti-H1N1 influenza virus activity (oseltamivir footnote). The data set is classed as cell-based.
Where [6] appears, read: read-out: EC50 (μM), H1N1 Tamiflu-resistant.
Setting [7] is: read-out: EC50 (μM), H1N1 Tamiflu-resistant virus.

Usually EC50 stands for the concentration giving half of the maximal effect. The pEC50 is the negative decadic logarithm of the EC50, by convention in mol/L. A low value points to a high EC50.

pEC50: −log10 of the molar value. Where two headings read alike, the source gives them in different places.

Take `O=c1cc(-c2ccccc2)oc2cc(O)c(O)c(O)c12` [Baicalein, reference compound]: the CC50 in data set [1] is > 300 µM. Further, the selectivity ratio in data set [2] (H1N1 Tamiflu-resistant) is > 6.5; in data set [2] (H1N1 Tamiflu-resistant virus) it was > 3.3. Further, the EC50 in data set [3] (setting [6]) was found to be 46.2 µM.
With `O=C(O)[C@H]1O[C@@H](Oc2cc3oc(-c4ccccc4)cc(=O)c3c(O)c2O)[C@H](O)[C@@H](O)[C@@H]1O` [Baicalin, reference compound], in data set [1], the CC50 was > 300 µM. Moreover, in data set [2] (H1N1 Tamiflu-resistant), the selectivity ratio is > 4.3. The half-maximal effective concentration (EC50) in data set [3] (setting [6]) is 69.3 µM.
The like results for `COc1cc2oc(-c3ccccc3Br)cc(=O)c2c(OC)c1OC` [Compound 2k, 2-(2-Bromophenyl)-5,6,7-trimethoxy-4H-chromen-4-one] were, in that order, 128 µM, 8 and 16 µM.
In data set [1], `COc1cc2oc(-c3cccc(Br)c3)cc(=O)c2c(OC)c1OC` [Compound 2l, 2-(3-Bromophenyl)-5,6,7-trimethoxy-4H-chromen-4-one] returned a CC50 of 32.1 µM. The selectivity ratio in data set [2] (H1N1 Tamiflu-resistant) is > 8. Moreover, the half-maximal effective concentration (EC50) in data set [3] (setting [6]) stood at 4 µM.
`COc1cc2oc(-c3ccc(Br)cc3)cc(=O)c2c(OC)c1OC` [Compound 2m, 2-(4-Bromophenyl)-5,6,7-trimethoxy-4H-chromen-4-one] returned a CC50 in data set [1] of 128 µM. Moreover, the selectivity ratio in data set [2] (H1N1 Tamiflu-resistant) turned out to be 0.7. Moreover, the EC50 in data set [3] (setting [6]) was found to be 192 µM.
In the case of `O=c1cc(-c2ccccc2)oc2cc(O)c(O)c(O)c12` [Compound 3a], the half-maximal effective concentration (EC50) in data set [3] (setting [7]) is 92.3 µM. Besides, the CC50 in data set [4] is > 300 µM.
In the same order, the values of `O=c1cc(-c2ccccc2Cl)oc2cc(O)c(O)c(O)c12` [Compound 3b] are 10.2 µM and > 300 µM.
With `O=c1cc(-c2cccc(Cl)c2)oc2cc(O)c(O)c(O)c12` [Compound 3c], the “SI (selective index = CC50/EC50), H1N1 Tamiflu-resistant virus” value in data set [3] is >6.0. Also, the concentration for a half-maximal effect (EC50) in data set [3] (setting [7]) was 50 µM. In addition, in data set [4], the CC50 is > 300 µM.
In the case of `O=c1cc(-c2ccc(Cl)cc2)oc2cc(O)c(O)c(O)c12` [Compound 3d], the concentration giving a half-maximal response (EC50) in data set [3] (setting [7]) worked out at 10.2 µM. Besides, the CC50 in data set [4] is > 300 µM.
Turning to `O=c1cc(-c2ccc(Cl)cc2Cl)oc2cc(O)c(O)c(O)c12` [Compound 3e], the “SI (selective index = CC50/EC50), H1N1 Tamiflu-resistant virus” value in data set [3] is >4.1. The EC50 in data set [3] (setting [7]) is 73.7 µM. Besides, the CC50 in data set [4] was > 300 µM.
The like results for `O=c1cc(-c2ccc(F)c(Br)c2)oc2cc(O)c(O)c(O)c12` [Compound 3g] were, in that order, >1.5, 204 µM and > 300 µM.
In the same order, the values of `O=C(O)c1ccc(-c2cc(=O)c3c(O)c(O)c(O)cc3o2)cc1` [Compound 3h] are >7.6, 39.7 µM and > 300 µM.
In the same order, the values of `O=c1cc(-c2ccc(-c3ccccc3)cc2)oc2cc(O)c(O)c(O)c12` [Compound 3i] are >4.2, 72 µM and > 300 µM.
Turning to `O=c1cc(-c2ccc([N+](=O)[O-])cc2)oc2cc(O)c(O)c(O)c12` [Compound 3j], in data set [3], the “SI (selective index = CC50/EC50), H1N1 Tamiflu-resistant virus” value is >16.6. Further, in data set [3] (setting [7]), the EC50 amounted to 18.1 µM. In addition, in data set [4], the CC50 was > 300 µM.
On to `COc1cc2oc(-c3ccccc3Br)cc(=O)c2c(O)c1OC` [Compound 4a, 2-(2-Bromophenyl)-5-hydroxy-6,7-dimethoxy-4H-chromen-4-one], for which, in data set [1], the CC50 came out at 133 µM. In addition, the selectivity ratio in data set [2] (H1N1 Tamiflu-resistant) was found to be 8.3. The EC50 in data set [3] (setting [6]) was 16.1 µM.
With `COc1cc2oc(-c3cccc(Br)c3)cc(=O)c2c(O)c1OC` [Compound 4b, 2-(3-Bromophenyl)-5-hydroxy-6,7-dimethoxy-4H-chromen-4-one], the CC50 in data set [1] was 66.5 µM. In addition, in data set [2] (H1N1 Tamiflu-resistant), the selectivity ratio was > 15.8. Moreover, in data set [3] (setting [6]), the half-maximal effective concentration (EC50) came to 4.2 µM.
`COc1cc2oc(-c3ccc(Br)cc3)cc(=O)c2c(O)c1OC` [Compound 4c, 2-(4-Bromophenyl)-5-hydroxy-6,7-dimethoxy-4H-chromen-4-one]: in data set [1], the CC50 is > 300 µM. Also, in data set [2] (H1N1 Tamiflu-resistant), the selectivity ratio was > 66.7. Moreover, the “SI (selective index = CC50/EC50), H1N1 Tamiflu-resistant” value in data set [3] is reported as >71.4. Further, the EC50 in data set [3] (setting [6]) turned out to be 4.2 µM.
For `COc1c(O)cc2oc(-c3ccccc3Br)cc(=O)c2c1O` [Compound 5a, 2-(2-Bromophenyl)-5,7-dihydroxy-6-methoxy-4H-chromen-4-one], the CC50 in data set [1] was > 300 µM. In data set [2] (H1N1 Tamiflu-resistant), the selectivity ratio was > 34.9. The 50% effective concentration (EC50) in data set [3] (setting [6]) stood at 8.6 µM.
On to `COc1c(O)cc2oc(-c3cccc(Br)c3)cc(=O)c2c1O` [Compound 5b, 2-(3-Bromophenyl)-5,7-dihydroxy-6-methoxy-4H-chromen-4-one], for which the CC50 in data set [1] was > 300 µM. In addition, the selectivity ratio in data set [2] (H1N1 Tamiflu-resistant) is > 66.7. In data set [3], the “SI (selective index = CC50/EC50), H1N1 Tamiflu-resistant” value is given as >69.8. In addition, in data set [3] (setting [6]), the EC50 was determined as 4.3 µM.
The like results for `COc1c(O)cc2oc(-c3ccc(Br)cc3)cc(=O)c2c1O` [Compound 5c, 2-(4-Bromophenyl)-5,7-dihydroxy-6-methoxy-4H-chromen-4-one] were, in that order, > 300 µM, > 66.7, >70.0 and 4.3 µM.
On to `O=c1cc(-c2ccccc2Br)oc2cc(O)c(O)c(O)c12` [Compound 6a, 2-(2-Bromophenyl)-5,6,7-trihydroxy-4H-chromen-4-one], for which the CC50 in data set [1] was > 300 µM. Moreover, the selectivity ratio in data set [2] (H1N1 Tamiflu-resistant) and in data set [2] (H1N1 Tamiflu-resistant virus) was > 33.3 throughout. The concentration giving a half-maximal response (EC50) in data set [3] (setting [6]) and in data set [3] (setting [7]) was 9 µM throughout.
With `O=c1cc(-c2cccc(Br)c2)oc2cc(O)c(O)c(O)c12` [Compound 6b, 2-(3-Bromophenyl)-5,6,7-trihydroxy-4H-chromen-4-one], in data set [1], the CC50 is > 300 µM. Besides, the selectivity ratio in data set [2] (H1N1 Tamiflu-resistant) and in data set [2] (H1N1 Tamiflu-resistant virus) was > 66.7 throughout. Besides, the “SI (selective index = CC50/EC50), H1N1 Tamiflu-resistant” value in data set [3] was >66.7. In addition, the EC50 in data set [3] (setting [6]) and in data set [3] (setting [7]) was 4.5 µM throughout.
Turning to `O=c1cc(-c2ccc(Br)cc2)oc2cc(O)c(O)c(O)c12` [Compound 6c, 2-(4-Bromophenyl)-5,6,7-trihydroxy-4H-chromen-4-one], in data set [1], the CC50 is > 300 µM. Further, the selectivity ratio in data set [2] (H1N1 Tamiflu-resistant) and in data set [2] (H1N1 Tamiflu-resistant virus) was > 66.7 throughout. For the same compound, the “SI (selective index = CC50/EC50), H1N1 Tamiflu-resistant” value in data set [3] is reported as >66.7. Also, the EC50 in data set [3] (setting [6]) and in data set [3] (setting [7]) was 4.5 µM in each case.
As for `NC(=O)c1ncn([C@@H]2O[C@H](CO)[C@@H](O)[C@H]2O)n1` [Ribavirin, reference compound], the CC50 in data set [1] was > 300 µM. Further, the selectivity ratio in data set [2] (H1N1 Tamiflu-resistant) and in data set [2] (H1N1 Tamiflu-resistant virus) was > 11.7 each time. Further, the concentration giving a half-maximal response (EC50) in data set [3] (setting [6]) and in data set [3] (setting [7]) was 25.6 µM throughout.
For the compound `CCOC(=O)C1=C[C@@H](OC(CC)CC)[C@H](NC(C)=O)[C@@H](N)C1` [oseltamivir, reference compound], the pEC50 in data set [5] was 4.49. The “activity against H1N1 Tamiflu-resistant virus” value in data set [3] is given as “void of activity”.

For the origin of these results see US20150329515A1, “COMPOSITION AND METHOD FOR TREATING OR PREVENTING INFLUENZA VIRUS INFECTION” (National Defense Medical Center, priority 2014, published 2015).
